How the values were obtained:
A549 cells [1] = assay: MTT antiproliferative assay, A549; type: cell-based, human; conditions: for IC50: Homo sapiens, MTT, A549 (lung), mean ± SD of three experiments; for times more active than doxorubicin: A549, ratio of IC50 values
From the text: (§1) adenocarcinoma) cell lines.
(§2) supplied to that same media.
(§3) carbon dioxide. […] The positive
(§4) (FluoStar Omega (BMG Labtec, Ortenberg, Germany).

SKOV3 cells [2] = assay: MTT antiproliferative assay, SKOV3; type: cell-based, human; conditions: for IC50: Homo sapiens, SK-OV-3, MTT, SKOV3 (ovarian), mean ± SD of three experiments; for fold better activity than doxorubicin: SKOV3, ratio of IC50 values
From the text: as §1, §2, §3, §4

MDA-MB-231 cells [3] = assay: MTT antiproliferative assay, MDA-MB-231; conditions: for IC50: read-out: IC50 (μM) MDA-MB231, MTT, MDA-MB-231 (breast), mean ± SD of three experiments; for fold increase in cytotoxicity versus doxorubicin: MDA-MB-231, ratio of IC50 values
Experimental: Doxorubicin was used as a standard anticancer drug.
The cytotoxicity was assessed using the MTT method, according to our previously reported work [32]. The cell lines were purchased from American Type Culture Collection (ATCC).
FBS (10%) and 100 units/mL PS (penicillin/streptomycin) were
supplied to that same media. The cells incubated at 37 °C in a humidified environment with 5%

EGFR kinase = EGFR kinase (Homo sapiens, UniProt P00533); assay: In vitro EGFR inhibitory activity; type: biochemical
Experimental: EGFR inhibitory activity was assayed according to the reported method.

MDA-MB-231 cells [4] = assay: Apoptosis, annexin V-FITC/PI flow cytometry, MDA-MB-231; type: cell-based, human; conditions: for early apoptosis / late apoptosis: MDA-MB-231
Experimental: (§5) The apoptosis studies regarding compounds 10 and 13 using annexin V-FITC/PI staining was also examined by flow cytometry.
as §1, §2, §3, §4
(§6) delivered to cancer cells for 48 hours. A549, MDA,MB 231 and SKOV3 cells were then
(§7) Technology (CST) and incubated for 15 minutes. Fluorescence activated cell sorting analysis
(§8) of cell cycle phases for each sample [37].

A549 cells [5] = assay: Apoptosis, annexin V-FITC/PI flow cytometry, A549; type: cell-based, human; conditions: for early apoptosis: A549; for late apoptosis / necrosis: A549, result in words
Experimental: as §5, §1, §2, §3, §4, §6, §7, §8

A549 cells [6] = assay: Cell cycle distribution, propidium iodide flow cytometry, A549; type: cell-based, human; conditions: for cell cycle arrest phase: A549; for cell distribution in G2 phase / cell distribution in G1 phase / cell distribution in S phase: A549, treated at IC50 for 48 h; for cell distribution in G2 phase: control 29.13 ± 2.31%; for cell distribution in G1 phase: control 32.88 ± 2.04%; for cell distribution in S phase: control 38.48 ± 3.71%
Experimental: (§9) The most promising compounds (10 and 13) were explored for cell cycle distribution to determine the intracellular mode of action of these compounds. […] In the present study, compounds 10 and 13 arrest different cell cycle phases in A549, MDA-MB 231, and SKOV3 cancer cells. […] However, compound 10 arrests the G2/S phase in both MDA-MB 231 and SKOV3, while it arrests the G1/G2 phases in lung A549 carcinoma.
(§10) The analysis was performed according to our previously published work.
as §1, §2, §3, §4, §6, §7, §8

SKOV3 cells [7] = assay: Apoptosis, annexin V-FITC/PI flow cytometry, SKOV3; type: cell-based, human
Experimental: as §5, §1, §2, §3, §4, §6, §7, §8

MDA-MB-231 cells [8] = assay: Cell cycle distribution, propidium iodide flow cytometry, MDA-MB-231; type: cell-based, human; conditions: for cell cycle arrest phase: MDA-MB-231; for cell distribution in G1 phase / cell distribution in S phase / cell distribution in G2 phase: MDA-MB-231, treated at IC50 for 48 h; for cell distribution in G1 phase: control 28.51 ± 2.09%; for cell distribution in S phase: control 35.51 ± 2.10%; for cell distribution in G2 phase: control 35.96 ± 1.97%
Experimental: as §9, §10, §1, §2, §3, §4, §6, §7, §8

SKOV3 cells [9] = assay: Cell cycle distribution, propidium iodide flow cytometry, SKOV3; type: cell-based, human; conditions: for cell cycle arrest phase: SKOV3; for cell distribution in G1 phase / cell distribution in G2 phase / cell distribution in S phase: SKOV3, treated at IC50 for 48 h; for cell distribution in G1 phase: control 31.03 ± 1.86%; for cell distribution in G2 phase: control 34.23 ± 1.38%; for cell distribution in S phase: control 34.72 ± 1.80%
Experimental: as §9, §10, §1, §2, §3, §4, §6, §7, §8

[10] = system: non-small cell lung cancer (NSCLC); conditions: cited from earlier work
esophageal cancer = conditions: cited from earlier work
hepatocellular carcinoma = conditions: cited from earlier work

Sequence of EGFR kinase (P00533 25-1210): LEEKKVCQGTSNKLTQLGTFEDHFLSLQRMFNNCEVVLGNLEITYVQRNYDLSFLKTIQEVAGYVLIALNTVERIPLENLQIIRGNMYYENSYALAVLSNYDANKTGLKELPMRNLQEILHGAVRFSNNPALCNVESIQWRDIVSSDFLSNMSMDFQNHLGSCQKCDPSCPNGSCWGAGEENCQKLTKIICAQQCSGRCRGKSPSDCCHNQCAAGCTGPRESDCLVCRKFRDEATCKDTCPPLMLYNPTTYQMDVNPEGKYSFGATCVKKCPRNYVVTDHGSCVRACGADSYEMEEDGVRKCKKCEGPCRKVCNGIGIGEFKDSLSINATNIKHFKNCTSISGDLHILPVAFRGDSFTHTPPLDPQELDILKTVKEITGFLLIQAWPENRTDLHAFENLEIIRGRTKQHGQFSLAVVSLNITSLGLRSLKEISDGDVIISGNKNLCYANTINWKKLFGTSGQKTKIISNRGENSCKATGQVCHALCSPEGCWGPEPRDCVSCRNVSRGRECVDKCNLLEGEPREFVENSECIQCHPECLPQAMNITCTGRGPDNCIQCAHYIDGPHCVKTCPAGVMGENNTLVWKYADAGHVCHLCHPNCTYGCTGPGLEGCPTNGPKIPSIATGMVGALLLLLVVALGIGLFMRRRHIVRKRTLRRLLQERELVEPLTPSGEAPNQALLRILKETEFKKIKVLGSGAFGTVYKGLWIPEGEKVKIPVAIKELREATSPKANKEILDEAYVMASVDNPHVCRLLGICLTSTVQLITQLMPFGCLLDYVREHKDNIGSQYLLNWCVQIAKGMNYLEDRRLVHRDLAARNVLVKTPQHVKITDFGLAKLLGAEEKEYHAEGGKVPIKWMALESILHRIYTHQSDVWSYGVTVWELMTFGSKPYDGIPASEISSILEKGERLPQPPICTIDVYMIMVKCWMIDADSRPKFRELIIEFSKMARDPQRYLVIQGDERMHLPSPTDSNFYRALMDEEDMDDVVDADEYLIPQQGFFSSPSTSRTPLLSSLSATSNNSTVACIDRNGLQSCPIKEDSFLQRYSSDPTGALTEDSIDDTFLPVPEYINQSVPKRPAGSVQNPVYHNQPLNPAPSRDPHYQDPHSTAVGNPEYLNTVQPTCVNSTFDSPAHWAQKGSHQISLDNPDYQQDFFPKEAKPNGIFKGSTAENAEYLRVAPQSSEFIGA

Fc1ccc(-n2cc(CSc3nnc(Cn4c(-c5ccc(Cl)cc5Cl)nc5ccccc54)o3)nn2)cc1 [Compound 8, 2-{[2-(2,4-Dichlorophenyl)-1H-benzo[d]imidazol-1-yl]methyl}-5-({[1-(4-Fluorophenyl)-1H-1,2,3-triazol-4-yl]methyl}thio)-1,3,4-oxadiazole]
melting point: 110 to 112 °C
IC50 (A549 cells [1]): 26.7 ± 1.26 µM
IC50 (SKOV3 cells [2]): 17.7 ± 0.68 µM
IC50 (MDA-MB-231 cells [3]): 15.5 ± 1.64 µM

Clc1ccc(-c2nc3ccccc3n2Cc2nnc(SCc3cn(-c4cccc(Br)c4)nn3)o2)c(Cl)c1 [Compound 9, 2-({[1-(3-Bromophenyl)-1H-1,2,3-triazol-4-yl]methyl}thio)-5-{[2-(2,4-Dichlorophenyl)-1H-benzo[d]imidazol-1-yl]methyl}-1,3,4-oxadiazole]
melting point: 180 to 182 °C
IC50 (A549 cells [1]): 17.4 ± 0.54 µM
IC50 (SKOV3 cells [2]): 13.6 ± 0.71 µM
IC50 (EGFR kinase): 0.95 ± 0.023 µM
IC50 (MDA-MB-231 cells [3]): 10.9 ± 0.58 µM

Oc1ccccc1-n1cc(CSc2nnc(Cn3c(-c4ccc(Cl)cc4Cl)nc4ccccc43)o2)nn1 [Compound 10, 2-(4-{[(5-{[2-(2,4-Dichlorophenyl)-1H-benzo[d]imidazol-1-yl]methyl}-1,3,4-oxadiazol-2-yl)thio]methyl}-1H-1,2,3-triazol-1-yl)phenol]
early apoptosis (MDA-MB-231 cells [4]): 69.7%
late apoptosis (MDA-MB-231 cells [4]): 3.2%
necrosis (MDA-MB-231 cells [4]; MDA-MB-231, result in words): without any necrosis
early apoptosis (A549 cells [5]): 55.1%
late apoptosis (A549 cells [5]): no late apoptosis
necrosis (A549 cells [5]): no late apoptosis or necrosis
times more active than doxorubicin (A549 cells [1]): 1.76 times
IC50 (A549 cells [1]): 3.31 ± 0.14 µM
IC50 (SKOV3 cells [2]): 6.98 ± 0.28 µM
fold better activity than doxorubicin (SKOV3 cells [2]): 1.23 fold
cell cycle arrest phase (A549 cells [6]): G1 and G2 phases
cell distribution in G2 phase (A549 cells [6]): 33.01 ± 2.28%
cell distribution in G1 phase (A549 cells [6]): 34.66 ± 2.80%
cell distribution in S phase (A549 cells [6]): 32.32 ± 1.51%
IC50 (EGFR kinase): 0.33 ± 0.051 µM
early apoptosis (SKOV3 cells [7]): 58.5%
cell cycle arrest phase (MDA-MB-231 cells [8]): S and G2 phases
cell distribution in G1 phase (MDA-MB-231 cells [8]): 17.58 ± 1.45%
cell distribution in S phase (MDA-MB-231 cells [8]): 37.82 ± 2.57%
cell distribution in G2 phase (MDA-MB-231 cells [8]): 44.58 ± 3.03%
cell cycle arrest phase (SKOV3 cells [9]): G2/S phase
cell distribution in G1 phase (SKOV3 cells [9]): 16.15 ± 2.11%
cell distribution in G2 phase (SKOV3 cells [9]): 48.73± 1.89%
cell distribution in S phase (SKOV3 cells [9]): 35.11 ± 1.21%
fold increase in cytotoxicity versus doxorubicin (MDA-MB-231 cells [3]): 4.0 fold
IC50 (MDA-MB-231 cells [3]): 1.18 ± 0.68 µM

Cc1ccccc1-n1cc(CSc2nnc(Cn3c(-c4ccc(Cl)cc4Cl)nc4ccccc43)o2)nn1 [Compound 11, 2-{[2-(2,4-Dichlorophenyl)-1H-benzo[d]imidazol-1-yl]methyl}-5-({[1-(o-tolyl)-1H-1,2,3-triazol-4-yl]methyl}thio)-1,3,4-oxadiazole]
melting point: 152 to 153 °C
IC50 (A549 cells [1]): 43.8 ± 0.87 µM
IC50 (SKOV3 cells [2]): 25.7 ± 1.16 µM
IC50 (MDA-MB-231 cells [3]): 36.7 ± 0.75 µM

Clc1ccc(-c2nc3ccccc3n2Cc2nnc(SCc3cn(-c4ccc(Cl)cc4Cl)nn3)o2)c(Cl)c1 [Compound 12, 2-({[1-(2,4-Dichlorophenyl)-1H-1,2,3-triazol-4-yl]methyl}thio)-5-{[2-(2,4-Dichlorophenyl)-1H-benzo[d]imidazol-1-yl]methyl}-1,3,4-oxadiazole]
melting point: 100 to 102 °C
IC50 (A549 cells [1]): 37.1 ± 0.67 µM
IC50 (SKOV3 cells [2]): 33.6 ± 0.91 µM
IC50 (MDA-MB-231 cells [3]): 25.2 ± 1.82 µM

O=C(CSc1nnc(Cn2c(-c3ccc(Cl)cc3Cl)nc3ccccc32)o1)Nc1ccc(F)cc1 [Compound 13, 2-[(5-{[2-(2,4-Dichlorophenyl)-1H-benzo[d]imidazol-1-yl]methyl}-1,3,4-oxadiazol-2-yl)thio]-N-(4-Fluorophenyl)acetamide]
early apoptosis (MDA-MB-231 cells [4]): 80.24%
late apoptosis (MDA-MB-231 cells [4]): 5.4%
early apoptosis (A549 cells [5]): 66.4%
late apoptosis (A549 cells [5]): no late apoptosis
necrosis (A549 cells [5]): no late apoptosis or necrosis
times more active than doxorubicin (A549 cells [1]): 1.1 times
IC50 (A549 cells [1]): 5.3 ± 0.44 µM
IC50 (SKOV3 cells [2]): 4.35 ± 0.38 µM
fold better activity than doxorubicin (SKOV3 cells [2]): 1.98 fold
cell cycle arrest phase (A549 cells [6]): G1 phase
cell distribution in G2 phase (A549 cells [6]): 24.64 ± 2.52%
cell distribution in G1 phase (A549 cells [6]): 36.34 ± 2.19%
cell distribution in S phase (A549 cells [6]): 38.99 ± 1.67%
IC50 (EGFR kinase): 0.38 ± 0.022 µM
early apoptosis (SKOV3 cells [7]): 76.2%
late apoptosis (SKOV3 cells [7]): 21.7%
cell cycle arrest phase (MDA-MB-231 cells [8]): G1 and S phases
cell distribution in G1 phase (MDA-MB-231 cells [8]): 34.88 ± 3.09%
cell distribution in S phase (MDA-MB-231 cells [8]): 41.14 ± 1.34%
cell distribution in G2 phase (MDA-MB-231 cells [8]): 23.97 ± 2.93%
cell cycle arrest phase (SKOV3 cells [9]): only the S phase
cell distribution in G1 phase (SKOV3 cells [9]): 25.38 ± 0.44%
cell distribution in G2 phase (SKOV3 cells [9]): 28.65 ± 1.73%
cell distribution in S phase (SKOV3 cells [9]): 45.93 ± 1.78%
fold increase in cytotoxicity versus doxorubicin (MDA-MB-231 cells [3]): 1.64 fold
IC50 (MDA-MB-231 cells [3]): 2.9 ± 0.53 µM

O=C(CSc1nnc(Cn2c(-c3ccc(Cl)cc3Cl)nc3ccccc32)o1)Nc1ccc(F)cc1F [Compound 14, 2-[(5-{[2-(2,4-Dichlorophenyl)-1H-benzo[d]imidazol-1-yl]methyl}-1,3,4-oxadiazol-2-yl)thio]-N-(2,4-Difluorophenyl)acetamide]
melting point: 212 to 214 °C
IC50 (A549 cells [1]): 11.6 ± 0.29 µM
IC50 (SKOV3 cells [2]): 12.8 ± 0.53 µM
IC50 (EGFR kinase): 1.21 ± 0.047 µM
IC50 (MDA-MB-231 cells [3]): 20.9 ± 0.24 µM

O=C(CSc1nnc(Cn2c(-c3ccc(Cl)cc3Cl)nc3ccccc32)o1)Nc1ccc(Br)cc1 [Compound 15, N-(4-Bromophenyl)-2-[(5-{[2-(2,4-Dichlorophenyl)-1H-benzo[d]imidazol-1-yl]methyl}-1,3,4-oxadiazol-2-yl)thio]acetamide]
melting point: 220 to 222 °C
IC50 (A549 cells [1]): 20.6 ± 1.41 µM
IC50 (SKOV3 cells [2]): 13.7 ± 0.45 µM
IC50 (MDA-MB-231 cells [3]): 16.4 ± 0.44 µM

COc1ccc(NC(=O)CSc2nnc(Cn3c(-c4ccc(Cl)cc4Cl)nc4ccccc43)o2)cc1 [Compound 16, 2-[(5-{[2-(2,4-Dichlorophenyl)-1H-benzo[d]imidazol-1-yl]methyl}-1,3,4-oxadiazol-2-yl)thio]-N-(4-Methoxyphenyl)acetamide]
melting point: 195 to 197 °C
IC50 (A549 cells [1]): 7.83 ± 0.35 µM
IC50 (SKOV3 cells [2]): 8.13 ± 0.28 µM
IC50 (EGFR kinase): 1.09 ± 0.011 µM
IC50 (MDA-MB-231 cells [3]): 10.5 ± 0.88 µM

COC(=O)c1ccccc1NC(=O)CSc1nnc(Cn2c(-c3ccc(Cl)cc3Cl)nc3ccccc32)o1 [Compound 17, Methyl 2-{2-[(5-{[2-(2,4-Dichlorophenyl)-1H-benzo[d]imidazol-1-yl]methyl}-1,3,4-oxadiazol-2-yl)thio]acetamido}benzoate]
melting point: 176 to 178 °C
IC50 (A549 cells [1]): 18 ± 0.87 µM
IC50 (SKOV3 cells [2]): 12.2 ± 0.35 µM
IC50 (EGFR kinase): 1.54 ± 0.026 µM
IC50 (MDA-MB-231 cells [3]): 11.9 ± 0.91 µM

C#Cc1cccc(Nc2ncnc3cc(OCCOC)c(OCCOC)cc23)c1 [Erlotinib, erlotinib]
cell cycle arrest phase [10]: G0/G1 phase
cell cycle arrest phase (esophageal cancer): G1/G0 phase
cell cycle arrest phase (hepatocellular carcinoma): G1/S checkpoint

COc1cccc2c1C(=O)c1c(O)c3c(c(O)c1C2=O)C[C@@](O)(C(=O)CO)C[C@@H]3O[C@H]1C[C@H](N)[C@H](O)[C@H](C)O1 [doxorubicin, reference compound]
IC50 (A549 cells [1]): 5.85 ± 0.61 µM
IC50 (SKOV3 cells [2]): 8.65 ± 0.37 µM
IC50 (MDA-MB-231 cells [3]): 4.76 ± 0.44 µM

Source: publication PMC9607330, “Cell Cycle Arrest and Apoptosis-Inducing Ability of Benzimidazole Derivatives: Design, Synthesis, Docking, and Biological Evaluation” (Molecules, 2022)
